In US9186318B2, “Quinolyl-containing hydroxamic acid compound and preparation method thereof, and pharmaceutical composition containing this compound and use thereof” (Beijing Konruns Pharmaceutical Co., Ltd, priority 2011, dated 2015):

Tests used:
Test in all cases: KinomeScan 96-kinase panel
Type in all cases: binding
Settings in all cases: compound concentration 1000 nM
[1] = biological target: CDK7 (Homo sapiens (Human), UniProt P50613)
Excerpt: (§1) The details of the screening technology were described in Fabian, M. A. et al, Nat., Biotechnol. 2005, 23, 329 and Karaman, M. W. et al, Nat., Biotechnol. 2008, 26, 127. From the above representative results, it can be seen that the compounds of the present invention have potent inhibitory activities on kinases including ALK, AXL, VEGFR2, PDGFR-α, PDGFR-β, c-KIT, Flt3, MEK1, MEK2, CSF1R, EPHA2, EPHA2, MKNK2, SRC, TIE2 and their mutants. Accordingly, the compounds of the present invention can be used for the treatment of diseases caused by abnormal activities of these kinases, e.g., cancer, psoriasis, hepatic cirrhosis, diabetes, diseases involving angiogenesis, eye diseases, immune system diseases, cardiovascular diseases, and so forth.

[2] = biological target: PAK2 (Homo sapiens (Human), UniProt Q13177)
Excerpt: as §1

[3] = biological target: EGFR(L858R) (Homo sapiens (Human), UniProt P00533, L858R)
Excerpt: as §1

[4] = biological target: CDK2 (Homo sapiens (Human), UniProt P24941)
Excerpt: as §1

[5] = biological target: ACVR1B (Homo sapiens (Human), UniProt P36896)
Excerpt: as §1

[6] = biological target: PRKCE (Homo sapiens (Human), UniProt Q02156)
Excerpt: as §1

[7] = biological target: TGFBR1 (Homo sapiens (Human), UniProt P36897)
Excerpt: as §1

[8] = biological target: ABL1(E255K)-phosphorylated (Homo sapiens (Human), UniProt P00519, E255K)
Excerpt: as §1

[9] = biological target: TRKA (Homo sapiens (Human), UniProt P04629)
Excerpt: as §1

[10] = biological target: BMPR2 (Homo sapiens (Human), UniProt Q13873)
Excerpt: as §1

[11] = biological target: ZAP70 (Homo sapiens (Human), UniProt P43403)
Excerpt: as §1

[12] = biological target: AURKB (Homo sapiens (Human), UniProt Q96GD4)
Excerpt: as §1

[13] = biological target: BRAF(V600E) (Homo sapiens (Human), UniProt P15056, V600E)
Excerpt: as §1

[14] = biological target: INSR (Homo sapiens (Human), UniProt P06213)
Excerpt: as §1

[15] = biological target: KIT (V559D, T670I) (Homo sapiens (Human), UniProt P10721, T670I/V559D)
Excerpt: as §1

[16] = biological target: CHEK1 (Homo sapiens (Human), UniProt O14757)
Excerpt: as §1

[17] = biological target: CDK3 (Homo sapiens (Human), UniProt Q00526)
Excerpt: as §1

[18] = biological target: p38-beta (Homo sapiens (Human), UniProt Q15759)
Excerpt: as §1

[19] = biological target: CSNK1D (Homo sapiens (Human), UniProt P48730)
Excerpt: as §1

[20] = biological target: FLT3 (Homo sapiens (Human), UniProt P36888)
Excerpt: as §1

[21] = biological target: MEK1 (Homo sapiens (Human), UniProt Q02750)
Excerpt: as §1

[22] = biological target: RSK2 (Kin.Dom.1-N-terminal) (Homo sapiens (Human), UniProt P51812)
Excerpt: as §1

[23] = biological target: PKAC-alpha (Homo sapiens (Human), UniProt P17612)
Excerpt: as §1

[24] = biological target: RAF1 (Homo sapiens (Human), UniProt P04049)
Excerpt: as §1

[25] = biological target: TIE2 (Homo sapiens (Human), UniProt Q02763)
Excerpt: as §1

[26] = biological target: CSF1R (Homo sapiens (Human), UniProt P07333)
Excerpt: as §1

[27] = biological target: JNK2 (Homo sapiens (Human), UniProt P45984)
Excerpt: as §1

[28] = biological target: PLK3 (Homo sapiens (Human), UniProt Q9H4B4)
Excerpt: as §1

[29] = biological target: FGFR2 (Homo sapiens (Human), UniProt P21802)
Excerpt: as §1

[30] = biological target: ERK1 (Homo sapiens (Human), UniProt P27361)
Excerpt: as §1

[31] = biological target: PLK1 (Homo sapiens (Human), UniProt P53350)
Excerpt: as §1

[32] = biological target: CDK11 (Homo sapiens (Human), UniProt Q9BWU1)
Excerpt: as §1

[33] = biological target: FGFR3 (Homo sapiens (Human), UniProt P22607)
Excerpt: as §1

[34] = biological target: DYRK1B (Homo sapiens (Human), UniProt Q9Y463)
Excerpt: as §1

[35] = biological target: AURKA (Homo sapiens (Human), UniProt O14965)
Excerpt: as §1

[36] = biological target: MKNK1 (Homo sapiens (Human), UniProt Q9BUB5)
Excerpt: as §1

[37] = biological target: MARK3 (Homo sapiens (Human), UniProt P27448)
Excerpt: as §1

Chain of AURKA (O14965 whole entry): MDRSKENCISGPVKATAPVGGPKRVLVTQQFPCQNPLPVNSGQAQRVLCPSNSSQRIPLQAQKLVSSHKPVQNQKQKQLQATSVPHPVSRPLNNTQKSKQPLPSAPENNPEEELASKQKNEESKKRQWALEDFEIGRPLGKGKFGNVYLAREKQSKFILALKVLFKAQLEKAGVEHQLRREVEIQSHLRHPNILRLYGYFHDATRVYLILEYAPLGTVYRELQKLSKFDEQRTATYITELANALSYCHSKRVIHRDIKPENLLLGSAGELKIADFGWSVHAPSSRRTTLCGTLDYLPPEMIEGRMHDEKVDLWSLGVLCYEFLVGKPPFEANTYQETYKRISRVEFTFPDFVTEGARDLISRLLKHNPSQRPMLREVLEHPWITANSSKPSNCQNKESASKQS
Chain of PLK3 (Q9H4B4 whole entry): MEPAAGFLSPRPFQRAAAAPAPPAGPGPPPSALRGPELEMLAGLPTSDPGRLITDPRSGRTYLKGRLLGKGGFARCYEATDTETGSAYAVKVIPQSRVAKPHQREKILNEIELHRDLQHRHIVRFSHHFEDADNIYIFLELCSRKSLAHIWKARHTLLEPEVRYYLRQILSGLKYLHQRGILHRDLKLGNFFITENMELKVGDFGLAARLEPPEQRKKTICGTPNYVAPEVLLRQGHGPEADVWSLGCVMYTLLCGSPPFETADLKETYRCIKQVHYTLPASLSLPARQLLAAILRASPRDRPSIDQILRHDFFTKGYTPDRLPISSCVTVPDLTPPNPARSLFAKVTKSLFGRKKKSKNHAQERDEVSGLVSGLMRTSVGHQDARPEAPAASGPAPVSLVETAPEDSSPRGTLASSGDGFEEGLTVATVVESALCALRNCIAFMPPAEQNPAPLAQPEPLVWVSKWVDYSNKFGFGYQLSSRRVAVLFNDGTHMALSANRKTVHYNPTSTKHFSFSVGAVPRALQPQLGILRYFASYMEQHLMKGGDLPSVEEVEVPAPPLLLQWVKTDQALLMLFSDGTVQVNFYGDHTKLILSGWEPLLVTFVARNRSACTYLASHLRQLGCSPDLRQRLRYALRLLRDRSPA
Chain of FGFR2 (P21802 22-821): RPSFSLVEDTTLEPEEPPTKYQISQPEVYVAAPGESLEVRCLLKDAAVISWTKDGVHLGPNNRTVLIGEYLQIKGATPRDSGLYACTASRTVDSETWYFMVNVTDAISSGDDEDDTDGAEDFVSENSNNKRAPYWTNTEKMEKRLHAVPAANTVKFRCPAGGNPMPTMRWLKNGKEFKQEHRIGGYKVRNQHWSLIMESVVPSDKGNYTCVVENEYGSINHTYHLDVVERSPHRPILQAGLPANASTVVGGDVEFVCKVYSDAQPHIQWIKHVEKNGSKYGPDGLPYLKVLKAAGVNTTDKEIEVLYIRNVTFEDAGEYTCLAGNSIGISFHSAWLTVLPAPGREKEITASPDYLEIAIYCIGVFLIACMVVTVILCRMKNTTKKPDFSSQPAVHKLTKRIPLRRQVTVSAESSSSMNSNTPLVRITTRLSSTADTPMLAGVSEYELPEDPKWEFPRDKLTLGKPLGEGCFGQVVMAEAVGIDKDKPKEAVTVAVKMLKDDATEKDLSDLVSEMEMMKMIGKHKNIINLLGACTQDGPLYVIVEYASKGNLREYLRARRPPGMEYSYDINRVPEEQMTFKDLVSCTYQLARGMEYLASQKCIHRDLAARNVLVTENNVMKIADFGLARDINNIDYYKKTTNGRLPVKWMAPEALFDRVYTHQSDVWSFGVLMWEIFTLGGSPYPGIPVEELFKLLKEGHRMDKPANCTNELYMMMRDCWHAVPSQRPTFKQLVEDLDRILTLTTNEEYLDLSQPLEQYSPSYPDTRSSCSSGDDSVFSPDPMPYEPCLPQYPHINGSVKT
Chain of JNK2 (P45984 whole entry): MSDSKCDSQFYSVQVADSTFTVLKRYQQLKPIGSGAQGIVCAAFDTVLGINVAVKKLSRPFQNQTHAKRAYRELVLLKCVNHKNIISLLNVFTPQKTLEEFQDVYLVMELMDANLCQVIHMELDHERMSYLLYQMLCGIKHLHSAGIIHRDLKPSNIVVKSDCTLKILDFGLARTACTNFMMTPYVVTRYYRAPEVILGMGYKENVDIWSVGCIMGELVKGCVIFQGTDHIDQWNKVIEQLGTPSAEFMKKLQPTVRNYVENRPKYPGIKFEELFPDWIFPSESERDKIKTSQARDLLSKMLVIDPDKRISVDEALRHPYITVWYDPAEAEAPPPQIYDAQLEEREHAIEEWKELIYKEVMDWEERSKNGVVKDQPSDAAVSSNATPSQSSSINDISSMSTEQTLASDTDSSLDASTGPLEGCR
Chain of INSR (P06213 28-1382): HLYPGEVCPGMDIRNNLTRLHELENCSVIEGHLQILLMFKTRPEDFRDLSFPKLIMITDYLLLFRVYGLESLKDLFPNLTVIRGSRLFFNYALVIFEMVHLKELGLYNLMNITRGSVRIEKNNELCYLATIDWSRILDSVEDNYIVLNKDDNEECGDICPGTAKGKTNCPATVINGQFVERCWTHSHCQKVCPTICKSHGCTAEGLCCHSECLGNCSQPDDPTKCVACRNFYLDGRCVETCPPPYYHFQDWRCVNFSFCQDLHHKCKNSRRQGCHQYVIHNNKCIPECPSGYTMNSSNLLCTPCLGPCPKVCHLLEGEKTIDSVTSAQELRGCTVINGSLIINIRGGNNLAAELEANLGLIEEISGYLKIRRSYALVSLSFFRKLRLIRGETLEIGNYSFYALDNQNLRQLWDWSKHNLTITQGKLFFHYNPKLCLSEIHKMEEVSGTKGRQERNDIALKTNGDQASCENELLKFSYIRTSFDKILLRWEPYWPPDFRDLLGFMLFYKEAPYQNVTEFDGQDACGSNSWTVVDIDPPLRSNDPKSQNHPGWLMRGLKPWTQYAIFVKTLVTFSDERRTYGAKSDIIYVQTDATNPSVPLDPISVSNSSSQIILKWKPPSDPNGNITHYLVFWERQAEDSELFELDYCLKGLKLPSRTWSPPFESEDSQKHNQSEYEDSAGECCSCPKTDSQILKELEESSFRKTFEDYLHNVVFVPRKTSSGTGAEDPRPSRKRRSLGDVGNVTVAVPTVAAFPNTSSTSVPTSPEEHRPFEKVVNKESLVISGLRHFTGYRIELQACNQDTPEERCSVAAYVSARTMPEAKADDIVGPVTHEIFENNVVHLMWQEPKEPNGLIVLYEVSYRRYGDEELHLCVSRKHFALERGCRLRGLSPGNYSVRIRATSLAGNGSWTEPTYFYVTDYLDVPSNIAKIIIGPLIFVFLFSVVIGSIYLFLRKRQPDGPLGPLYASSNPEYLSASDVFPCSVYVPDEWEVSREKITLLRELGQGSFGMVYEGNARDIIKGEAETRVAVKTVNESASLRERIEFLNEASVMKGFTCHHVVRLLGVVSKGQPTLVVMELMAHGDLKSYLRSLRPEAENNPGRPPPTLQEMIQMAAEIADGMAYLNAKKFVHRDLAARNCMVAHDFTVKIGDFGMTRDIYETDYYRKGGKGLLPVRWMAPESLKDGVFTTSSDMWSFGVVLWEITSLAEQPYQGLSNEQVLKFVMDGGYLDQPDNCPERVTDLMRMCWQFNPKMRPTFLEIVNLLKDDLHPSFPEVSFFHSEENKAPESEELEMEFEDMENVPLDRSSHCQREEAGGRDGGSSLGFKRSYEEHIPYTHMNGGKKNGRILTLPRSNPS
Chain of PRKCE (Q02156 whole entry): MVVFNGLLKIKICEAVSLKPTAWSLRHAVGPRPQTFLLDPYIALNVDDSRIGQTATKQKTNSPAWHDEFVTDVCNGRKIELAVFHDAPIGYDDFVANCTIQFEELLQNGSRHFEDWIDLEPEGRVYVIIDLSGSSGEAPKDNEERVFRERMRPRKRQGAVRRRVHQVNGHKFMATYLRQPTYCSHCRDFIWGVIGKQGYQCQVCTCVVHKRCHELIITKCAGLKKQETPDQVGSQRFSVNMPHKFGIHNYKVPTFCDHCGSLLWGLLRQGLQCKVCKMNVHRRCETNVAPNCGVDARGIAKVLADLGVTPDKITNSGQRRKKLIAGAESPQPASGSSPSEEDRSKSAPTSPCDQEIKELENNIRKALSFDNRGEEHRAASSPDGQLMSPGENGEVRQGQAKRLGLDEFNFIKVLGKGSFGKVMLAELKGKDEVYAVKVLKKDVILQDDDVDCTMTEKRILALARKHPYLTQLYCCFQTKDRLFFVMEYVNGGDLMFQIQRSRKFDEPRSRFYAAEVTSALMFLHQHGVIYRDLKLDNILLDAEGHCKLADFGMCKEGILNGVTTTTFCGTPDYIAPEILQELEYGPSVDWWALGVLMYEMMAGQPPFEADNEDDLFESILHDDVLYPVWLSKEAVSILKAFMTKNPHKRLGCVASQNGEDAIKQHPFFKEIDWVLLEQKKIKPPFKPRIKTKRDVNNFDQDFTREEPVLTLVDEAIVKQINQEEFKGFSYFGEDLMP
Chain of RSK2 (Kin.Dom.1-N-terminal) (P51812 68-327 limits assumed): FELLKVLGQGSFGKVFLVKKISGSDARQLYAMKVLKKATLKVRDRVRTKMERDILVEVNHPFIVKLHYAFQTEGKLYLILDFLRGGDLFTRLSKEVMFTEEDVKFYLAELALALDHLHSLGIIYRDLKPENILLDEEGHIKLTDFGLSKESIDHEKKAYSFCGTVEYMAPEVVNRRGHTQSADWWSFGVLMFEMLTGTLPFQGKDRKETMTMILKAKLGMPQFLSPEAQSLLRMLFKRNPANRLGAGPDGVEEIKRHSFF
Chain of CSNK1D (P48730 whole entry): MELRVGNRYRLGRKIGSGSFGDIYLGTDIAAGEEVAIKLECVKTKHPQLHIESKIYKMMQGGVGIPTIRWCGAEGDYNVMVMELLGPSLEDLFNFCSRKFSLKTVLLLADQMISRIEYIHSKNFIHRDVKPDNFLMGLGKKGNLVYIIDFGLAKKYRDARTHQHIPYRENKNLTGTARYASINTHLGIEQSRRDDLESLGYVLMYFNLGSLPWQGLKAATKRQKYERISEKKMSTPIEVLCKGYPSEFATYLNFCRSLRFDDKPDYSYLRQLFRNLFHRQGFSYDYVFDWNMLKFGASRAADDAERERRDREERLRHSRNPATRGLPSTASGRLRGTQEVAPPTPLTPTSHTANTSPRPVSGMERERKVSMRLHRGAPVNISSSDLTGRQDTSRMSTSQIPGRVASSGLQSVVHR

COc1cc2c(Oc3ccc(NC(=O)C4(C(=O)Nc5ccc(F)cc5)CC4)cc3F)ccnc2cc1OCCCCCC(=O)NO [Example 13, N1′-[3-fluoro-4-[[7-[6-(hydroxyamino)-6-oxohexyloxy]-6-methoxy-4-quinolyl]oxy]phenyl]-N1-(4-fluorophenyl)cyclopropane-1,1-dicarboxamide]
% Ctrl@1000 nM [1]: 5.8 % Ctrl
% Ctrl@1000 nM [2]: 76 % Ctrl
% Ctrl@1000 nM [3]: 5.7 % Ctrl
% Ctrl@1000 nM [4]: 73 % Ctrl
% Ctrl@1000 nM [5]: 90 % Ctrl
% Ctrl@1000 nM [6]: 100 % Ctrl
% Ctrl@1000 nM [7]: 85 % Ctrl
% Ctrl@1000 nM [8]: 7.8 % Ctrl
% Ctrl@1000 nM [9]: 0.5 % Ctrl
% Ctrl@1000 nM [10]: 100 % Ctrl
% Ctrl@1000 nM [11]: 80 % Ctrl
% Ctrl@1000 nM [12]: 7 % Ctrl
% Ctrl@1000 nM [13]: 88 % Ctrl
% Ctrl@1000 nM [14]: 6 % Ctrl
% Ctrl@1000 nM [15]: 0.15 % Ctrl
% Ctrl@1000 nM [16]: 96 % Ctrl
% Ctrl@1000 nM [17]: 100 % Ctrl
% Ctrl@1000 nM [18]: 78 % Ctrl
% Ctrl@1000 nM [19]: 54 % Ctrl
% Ctrl@1000 nM [20]: 0.85 % Ctrl
% Ctrl@1000 nM [21]: 0.95 % Ctrl
% Ctrl@1000 nM [22]: 96 % Ctrl
% Ctrl@1000 nM [23]: 100 % Ctrl
% Ctrl@1000 nM [24]: 53 % Ctrl
% Ctrl@1000 nM [25]: 0.55 % Ctrl
% Ctrl@1000 nM [26]: 0 % Ctrl
% Ctrl@1000 nM [27]: 62 % Ctrl
% Ctrl@1000 nM [28]: 100 % Ctrl
% Ctrl@1000 nM [29]: 65 % Ctrl
% Ctrl@1000 nM [30]: 94 % Ctrl
% Ctrl@1000 nM [31]: 100 % Ctrl
% Ctrl@1000 nM [32]: 1.2 % Ctrl
% Ctrl@1000 nM [33]: 64 % Ctrl
% Ctrl@1000 nM [34]: 63 % Ctrl
% Ctrl@1000 nM [35]: 5.2 % Ctrl
% Ctrl@1000 nM [36]: 8.8 % Ctrl
% Ctrl@1000 nM [37]: 73 % Ctrl
